Experimental findings from US10835575B2, “Compositions and methods for treating disease using Salmonella T3SS effector protein (SipA)” (University of Massachusetts, priority 2013, dated 2020) are described below.

Test [1] concerns CT26 tumors. In words: Subcutaneous CT26 murine colon cancer model, tumor volume. The class given is in vivo, Balb/c mice. Conditions: doxorubicin alone, 10 mg/kg. The source says: (§1) FIG. 6A-D. The combined effects of SipA-AuNPs and exogenous doxorubicin prevent tumor growth. (FIG. 6A) Balb/c mice bearing subcutaneous CT26 tumors (mean tumor volumes of approximately 0.5 mm^3) received IP treatments for 15 days as described in the Materials and Methods section, (▪) Untreated, (●) AuNP alone, (▴A) SipA-AuNPs, (♦) Doxorubicin or (□) SipA-AuNP plus Doxorubicin (DOX). SipA-AuNPs conjugates improve the efficacy of doxorubicin. (*P<0.0001). (FIG. 6B) Accumulation of gold nanoparticles in the tumors shown in (FIG. 6A) was evaluated by SEM and X-ray microanalysis. Color intensity represents tumor penetration. The sections of tumor were imaged for X-ray analysis and X-ray mapping as described in the Materials and Methods section. (FIG. 6C) P-gp expression in the tumors shown in (FIG. 6A) was evaluated by western blot. Tumors were homogenized and lysed. Whole cell lysates were normalized for protein levels and probed for P-gp. Levels of P-gp were quantified by densitometry and presented on the bar cart. Densitometry was performed using ImageJ and results are presented as relative to the untreated cells. […] Levels of P-gp were quantified by densitometry and presented on the bar graph. […]
The subcutaneous tumor model. […] Tumor size was measured using calipers and volumes were estimated using the formula 0.5×length×(width)^2. […]

The test system of test [2] is P-gp. In words: P-gp expression in HCT8 cell monolayers, Western blot. The class given is cell-based, human. The method, then:
FIG. 5A-B. SipA-AuNPs decrease the expression of P-gp at a SipA dose nearly 500 times lower than free SipA. (FIG. 5A) Schematic presentation of P-gp knockdown mechanism via SipA-AuNP. (FIG. 5B) HCT8 cell monolayers were left untreated (−), exposed to […] 160 μg/ml of purified SipA, AuNP alone or AuNP-SipA (0.72 μg/ml of SipA).
(§2) Cell culture. The human intestinal adenocarcinoma cell line HCT8 were maintained in accordance with (8). The human breast adenocarcinoma cell line MCF-7, the human bladder transitional cell carcinoma cell line UM-UC-3, and the CT26 murine colon carcinoma cell line, were purchased from ATCC and were all maintained in DMEM F-12 containing a 10% fetal bovine serum, 100 U/ml penicillin, and 10 μg/ml streptomycin at 37° C. in 90% relative humidity and 5% CO2.
Cell lysates and Western Blot analysis. Cell lysates were harvested from S. Typhimurium-infected HCT8 cells, as previously described (8). Proteins were normalized to 30 μg, separated by SDS/PAGE (4-12% gradient; Biorad, Hercules, Calif.), and transferred to nitrocellulose (Bio-Rad; 0.45μ membrane). Immuno-blots were performed using the murine monoclonal P-gp C219 antibody (calbiochem) diluted at 1:100. […]

Test [3] deals with P-gp. Put plainly: P-gp expression in MCF-7 breast adenocarcinoma cells, Western blot. As to conditions: MCF-7 cells, 80 or 160 μg/ml purified SipA, 3 h, compared to buffer control. The format is cell-based, human. The protocol:
(§3) FIG. 3A-B. SipA-induced, dose-dependent P-gp down-regulation is conserved in other cancer cell types. (FIG. 3A) MCF-7 breast adenocarcinoma cells were left untreated (−) or exposed to 80 μg/ml or 160 μg/ml of purified SipA for 3 h. Normalized whole cell lysates were then probed for P-gp and GAPDH. Densitometry was analyzed by ImageJ and presented as relative to the untreated cells. (FIG. 3B) UM-UC-3 human bladder carcinoma cells were left untreated or exposed to 80 μg/ml or 160 μg/ml of purified SipA for 3 h, and then probed and analyzed as in (FIG. 3A).
as §2
(§4) Cell lysates and Western Blot analysis. Cell lysates were harvested from S. Typhimurium-infected HCT8 cells, as previously described (8). Proteins were normalized to 30 μg, separated by SDS/PAGE (4-12% gradient; Biorad, Hercules, Calif.), and transferred to nitrocellulose (Bio-Rad; 0.45μ membrane). […]

For test [4], the system named is P-gp. Put plainly: P-gp expression in UM-UC-3 bladder carcinoma cells, Western blot. The format is cell-based, human. Conditions: UM-UC-3 cells, 80 or 160 μg/ml purified SipA, 3 h. The method, then:
as §3, §2, §4
(In general: A western blot detects proteins with antibodies after separation by electrophoresis.)

The target in test [5] is T1, PERP (Homo sapiens, UniProt Q96FX8).
T1 construct: host or cells: yeast (split-ubiquitin two-hybrid system)
In words: Split-ubiquitin yeast-two hybrid analysis with full length SipA as bait. The format is binding. As to conditions: human cancer colon mRNA-based library as prey; epithelial surfaces. From the text: (§5) In a further embodiment, SipA increases the level of expression of PERP in cells, PERP is a tetraspan membrane protein originally identified as a transcriptional target of the p53 tumor suppressor (10). P53 regulates the cell cycle and, thus, functions as a tumor suppressor that is involved in preventing cancer. As such, p53 has been described as “the guardian of the genome”, referring to its role in conserving stability by preventing genome mutation. Fundamental to the tumor-suppressor role of p53 is the ability to engage in apoptosis. […] Studies investigating the interaction of SipA with the surface epithelial cells have been carried out (13, 14). The inventors used a split-ubiquitin based yeast-two hybrid analysis system (Dualsystems Biotech) with full length SipA as bait and a human cancer colon mRNA-based library as prey, to identify PERP, a p53 induced apoptotic effector, as a SipA interacting partner. […] While an understanding of the mechanism is not necessary, and without limiting the invention to any particular mechanism, and although the precise function of PERP in eliciting an apoptotic response remains unknown, initial reports indicate that PERP expression causes nuclear localization of p53 and increases the level of transcriptionally active p53 protein. […] Including increased protein stability, postranslational modifications, and enhanced nuclear accumulation. […]

For test [6], the system named is PERP. In words: PERP protein expression in human colonic cancers in vitro. The class given is cell-based.
Excerpt: as §5

Test [7] relates to P-gp. In words: Colonic P-gp expression in mice colonized with S. Typhimurium strains. The class given is in vivo, Balb/c mice. Conditions: SipA over-expressing strain (AJK63) vs isogenic SipA mutant strain (EE633), proximal colon, 48 hours.
Excerpt: as §1, with “Whole cell lysates were normalized for protein levels and probed for P-gp.” left out, “cart.” for “cart. Densitometry was performed using ImageJ and results are presented as relative to the untreated cells.”
Since normal healthy intestinal epithelium display baseline expression of P-gp, the inventors evaluated the colonic expression of P-gp in mice colonized with a S. Typhimurium strain that over-expresses SipA (AJK63) compared to mice colonized with an equivalent amount of an isogenic SipA mutant strain (EE633). […]

P-gp, sequence (P08183 whole entry): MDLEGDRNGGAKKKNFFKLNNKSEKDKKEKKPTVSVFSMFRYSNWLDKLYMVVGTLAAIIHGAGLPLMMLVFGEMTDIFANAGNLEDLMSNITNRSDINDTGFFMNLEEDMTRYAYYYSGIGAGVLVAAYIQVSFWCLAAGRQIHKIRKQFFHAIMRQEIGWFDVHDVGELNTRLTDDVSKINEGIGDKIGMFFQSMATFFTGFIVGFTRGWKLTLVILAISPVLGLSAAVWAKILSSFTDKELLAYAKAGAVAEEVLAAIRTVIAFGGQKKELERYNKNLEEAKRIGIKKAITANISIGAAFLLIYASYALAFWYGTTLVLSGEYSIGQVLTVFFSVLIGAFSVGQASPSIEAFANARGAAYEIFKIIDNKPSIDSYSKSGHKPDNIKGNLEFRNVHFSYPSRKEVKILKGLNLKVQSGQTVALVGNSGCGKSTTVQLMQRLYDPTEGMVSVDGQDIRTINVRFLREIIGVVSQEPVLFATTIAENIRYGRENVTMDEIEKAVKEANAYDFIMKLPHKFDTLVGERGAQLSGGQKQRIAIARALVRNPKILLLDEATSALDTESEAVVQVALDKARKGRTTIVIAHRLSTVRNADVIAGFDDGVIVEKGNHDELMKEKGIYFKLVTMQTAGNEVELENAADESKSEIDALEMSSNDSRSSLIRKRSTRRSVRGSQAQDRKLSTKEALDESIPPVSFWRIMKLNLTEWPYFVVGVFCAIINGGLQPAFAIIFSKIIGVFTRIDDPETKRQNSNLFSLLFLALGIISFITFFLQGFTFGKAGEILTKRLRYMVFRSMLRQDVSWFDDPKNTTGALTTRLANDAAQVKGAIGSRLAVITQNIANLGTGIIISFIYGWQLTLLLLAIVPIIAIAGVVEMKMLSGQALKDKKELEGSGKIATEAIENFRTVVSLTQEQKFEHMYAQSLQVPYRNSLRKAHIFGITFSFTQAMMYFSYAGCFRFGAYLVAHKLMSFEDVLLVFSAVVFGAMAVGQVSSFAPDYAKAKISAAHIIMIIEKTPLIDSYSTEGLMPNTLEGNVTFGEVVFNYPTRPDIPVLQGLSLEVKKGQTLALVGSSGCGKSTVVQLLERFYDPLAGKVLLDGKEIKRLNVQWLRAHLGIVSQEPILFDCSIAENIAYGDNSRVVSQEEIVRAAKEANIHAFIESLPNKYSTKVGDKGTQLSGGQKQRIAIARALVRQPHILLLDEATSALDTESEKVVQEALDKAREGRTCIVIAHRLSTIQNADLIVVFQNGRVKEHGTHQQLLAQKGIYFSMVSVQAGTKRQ
T1 sequence (Q96FX8 whole entry): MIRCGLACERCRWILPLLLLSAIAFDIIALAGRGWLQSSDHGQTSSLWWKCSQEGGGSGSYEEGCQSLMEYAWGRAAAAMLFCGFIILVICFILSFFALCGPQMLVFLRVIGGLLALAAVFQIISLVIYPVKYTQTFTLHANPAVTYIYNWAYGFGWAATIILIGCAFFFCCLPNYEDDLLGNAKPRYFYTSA

As for `COc1cccc2c1C(=O)c1c(O)c3c(c(O)c1C2=O)C[C@@](O)(C(=O)CO)C[C@@H]3O[C@H]1C[C@H](N)[C@H](O)[C@H](C)O1` [doxorubicin], the “effect on tumor size” value in test [1] is reported as “minimal effect on tumor size”.

On to “SipA: Salmonella Typhimurium type III secreted effector protein, SEQ ID NO:01; purified as SipA-HA fusion protein”, for which, in test [2] (HCT8 monolayers, 80 μg/ml or 160 μg/ml purified SipA-HA, 3 hours), the “modulation of P-gp expression” value was “dose dependent ability to modulate P-gp to the same degree as wild-type S. Typhimurium”. The “reduction of P-gp expression” value in test [3] came to 40%; in test [4] it was 95%. Also, in test [5], the “interaction with PERP” value is reported as “bind to PERP at epithelial surfaces”. In addition, the PERP protein expression entry in test [6] is given as “up-regulates the protein expression of PERP”. The “expression of P-gp in healthy murine intestinal epithelium” value in test [7] is reported as “could modulate the expression of P-gp in healthy murine intestinal epithelium in vivo”.

As to lipopolysaccharide [reference compound], the “modulation of P-gp by lipopolysaccharide” value in test [2] (HCT8, purified LPS from S. typhimurium 0.1 to 100 μg/ml, 3 h) was “not attributed to trace amounts of lipopolysaccharide”.
